Assay results taken from patent publication US8211881B2, “Cholesterol-mimetic pyrene probes” (Centre National de la Recherche Scientifique, priority 2005, dated 2012).

How the values were obtained:
[1] = in DMPC; cited from earlier work
[2] = biological target: T1, GPCR μ with opioids (hMOP) (Homo sapiens, UniProt P35372); test: Fluorescence spectra of SH-SY5Y cells overexpressing hMOP, marked with pyrene-ketone-cholesterol (4), before and after agonist addition (FIG. 2); assay type: cell-based; conditions: agonist under saturation conditions, probe of formula (4)
T1 construct: expressed in transfected cells; host or cells: SH-SY5Y neuroblastoma cells
T1 sequence (P35372 whole entry): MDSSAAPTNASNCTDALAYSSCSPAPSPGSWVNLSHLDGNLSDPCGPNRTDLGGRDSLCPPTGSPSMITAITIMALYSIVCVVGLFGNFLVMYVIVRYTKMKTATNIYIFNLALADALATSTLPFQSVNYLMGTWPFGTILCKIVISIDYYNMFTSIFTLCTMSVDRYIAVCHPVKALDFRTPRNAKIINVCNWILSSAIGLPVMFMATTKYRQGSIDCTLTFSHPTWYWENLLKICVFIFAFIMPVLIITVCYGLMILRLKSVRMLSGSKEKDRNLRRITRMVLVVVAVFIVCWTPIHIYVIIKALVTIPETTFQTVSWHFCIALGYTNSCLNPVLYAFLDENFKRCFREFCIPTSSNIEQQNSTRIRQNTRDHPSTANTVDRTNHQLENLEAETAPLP
Procedure: Confluence cells immobilised on a 22 by 22 mm silica slice are placed in a 35 mm diameter Petri dish and covered by 1.2 ml of a 0.22 μm-filtered solution and composed of 15 ml of base medium (DMEM with 1% foetal calf serum) plus 1 ml solution of methyl-β-cyclodextrins loaded with Pyrene cholesterol (4) or (7). The mixture is left to incubate at 37° C. for between 1 and 15 mn according to the desired marking rate. Then the medium is replaced 4 times with 1.2 ml of PBS Ca++Mg++.
The images are produced with a Zeiss axioplanll microscope using a 63× oil-immersion objective (Plan-Neofluoar, NA=1.4) and a CCD camera (C2400-75i Hamamatsu) equipped with the Argus 20 system (Hamamatsu) which removes the background noise directly on the preparation corresponding to the following mounting: after the slice carrying the marked cells has been turned upside-down on a slide provided with cross-pieces, a chamber the volume of which is close to 120 μl is thus produced and filled with DMEM medium . […]
The fluorescence spectra are produced on these mountings on an AMINCO 500 spectrofluorimeter. The excitation wavelength is 335 nm bp 5 nm, the emission spectrum being recorded after 370 nm bp 4 nm and with a resolution of 0.25 nm per point.

SMILES | melting point | also measured
C=C(CCc1ccc2ccc3cccc4ccc1c2c34)[C@H]1CC[C@H]2[C@@H]3CC=C4C[C@@H](O)CC[C@]4(C)[C@H]3CC[C@]12C | 84 °C | 
C[C@]12CC[C@H]3[C@@H](CC=C4C[C@@H](O)CC[C@@]43C)[C@@H]1CC[C@@H]2C(=O)CCc1ccc2ccc3cccc4ccc1c2c34 [pyrene-ketone-cholesterol, 3β-hydroxy-pregn-5-ene-21-(1-methylpyrenyl)-20-one] | 199 °C | 
CC(C)CCC[C@@H](C)[C@H]1CC[C@H]2[C@@H]3CC=C4C[C@@H](O)CC[C@]4(C)[C@H]3CC[C@]12C [cholesterol] |  | solubility in membrane lipids [1]: 68%
C[C@@H](NC(=O)[C@@H](N)Cc1ccc(O)cc1)C(=O)NCC(=O)N(C)[C@@H](Cc1ccccc1)C(=O)NCCO [DAMGO] |  | change of membrane polarity (band I1 intensity, I3 and I4 unchanged) after addition of the agonist [2]: reduction in the membrane polarity
